From ChEMBL document CHEMBL5727231, “Farnesoid X receptor agonists and uses thereof” (2019) come the findings set out here.

Some results are limits rather than exact numbers.

In the test the target is T1, Bile acid receptor (Homo sapiens, UniProt Q96RI1).
T1 sequence (Q96RI1 whole entry): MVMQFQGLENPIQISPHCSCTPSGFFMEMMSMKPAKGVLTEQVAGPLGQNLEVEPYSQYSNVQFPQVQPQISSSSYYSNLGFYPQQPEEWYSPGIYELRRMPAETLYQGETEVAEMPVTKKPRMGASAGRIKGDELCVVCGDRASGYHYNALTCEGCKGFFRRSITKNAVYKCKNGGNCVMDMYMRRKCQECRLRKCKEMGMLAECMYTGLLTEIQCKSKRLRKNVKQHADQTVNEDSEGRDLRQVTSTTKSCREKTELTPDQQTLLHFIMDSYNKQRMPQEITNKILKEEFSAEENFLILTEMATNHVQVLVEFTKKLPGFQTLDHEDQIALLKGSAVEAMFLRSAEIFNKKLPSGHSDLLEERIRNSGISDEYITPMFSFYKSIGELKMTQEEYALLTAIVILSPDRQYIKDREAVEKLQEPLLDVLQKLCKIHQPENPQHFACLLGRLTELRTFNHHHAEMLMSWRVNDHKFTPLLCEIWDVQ
Kind of test: In Vitro FXR Assay (TK): SeedingCV-1 cells were seeded at a density of 2,000,000 cells in a T175 flask with DMEM+10% charcoal double-stripped FBS and incubated at 37° C. in 5% CO2 for 18 h (O/N).TransfectionAfter 18 h of incubation, the medium in the T175 flask was changed with fresh DMEM+10% charcoal super-stripped serum. In a polypropylene tube, 2500 μL OptiMEM (Life Technologies, Cat #31985-062) was combined with expression plasmids for hFXR, hRXR, TK-ECRE-luc and pCMX-YFP. The tube was then briefly vortexed and incubated at room temperature for 5 minutes. Transfection reagent (X-tremeGENE HP from Roche, Cat #06 366 236 001) was added to the OptiMEM/plasmid mixture vortexed and incubated at room temperature for 20 minutes. Following incubation, the transfection reagent/DNA mixture complex was added to cells in the T175 flask and the cells were incubated at 37° C. in 5% CO2 for 18 h (O/N).Test CompoundsCompounds were serially diluted in DMSO and added to transfected CV-1 cells. The cells were then incubated for 18 hrs. The next day cells were lysed and examined for luminescence.
On to `COC(=O)c1ccc2c(N(C[C@H]3CC[C@H](c4ccc(OC)c(C)c4)CC3)C(=O)C3CCCCC3)nccc2c1`, for which the concentration for a half-maximal effect (EC50) (usually the concentration that produces a half-maximal response) was < 1000 nM. In the case of `COC(=O)c1ccc2c(N(C[C@H]3CC[C@H](c4cccc(OC)c4)CC3)C(=O)CC(C)(C)C)nccc2c1` it was < 1000 nM.

For the molecule `COC(=O)c1ccc2c(N(C[C@H]3CC[C@H](c4ccc(C)cc4)CC3)C(=O)CC(C)(C)C)nccc2c1`, the concentration giving a half-maximal response (EC50) is < 1000 nM.
